{"source": "patent US20110092484A1", "about": "“THERAPEUTIC OR PROPHYLACTIC AGENT FOR CEREBRAL ANEURYSM” (NIPPON CHEMIPHAR CO., LTD., priority 2007, published 2011)", "key": {"collagenase I": {"tested_on": "collagenase I", "assay": "Collagenase activity in lysate of the whole Willis ring, type I collagen", "type": "in vivo", "conditions": "treated rats n=5, P=0.014", "protocol": "(§1) One hundred fifty […] of protein was used in one experiment (n=5 in each group). Collagenase activity was measured using Collagenase Activity Measurement Kit (Life Laboratory). Briefly, fluorescence labeled type I or IV collagen was incubated with the lysate of the whole Willis ring for one hour at 37° C. Undigested fluorescence labeled collagen was extracted in ethanol solution and measured by fluorospectrometer with excitation 496 nm and measurement 520 nm. Collgenase activity (U/ml) was calculated by the fluorescence intensity according to the formula given in the manufacture's direction."}, "cathepsin B [1]": {"target": "T1, cathepsin B (Rattus norvegicus, UniProt P00787)", "T1 construct": "from tissue; host or cells: frozen sections of rat cerebral aneurysmal wall (Sprague-Dawley rats)", "T1 sequence (P00787 80-333)": "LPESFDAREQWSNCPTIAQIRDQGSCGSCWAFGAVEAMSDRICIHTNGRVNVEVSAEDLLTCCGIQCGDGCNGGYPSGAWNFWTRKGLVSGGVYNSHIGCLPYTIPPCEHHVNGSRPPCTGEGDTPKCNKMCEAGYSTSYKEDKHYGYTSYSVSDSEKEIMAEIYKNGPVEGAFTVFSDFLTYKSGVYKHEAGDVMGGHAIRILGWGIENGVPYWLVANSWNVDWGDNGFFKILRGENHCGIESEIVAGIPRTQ", "assay": "Cathepsin B activity in aneurysmal walls, azo-coupling method (in situ)", "type": "in vivo", "conditions": "three months after aneurysm induction, treated rats", "protocol": "In order to examine cathepsin B activity in aneurysmal walls, azo-coupling method (in situ) was performed. Three months after aneurysm induction, rats (n=6 in each group) were euthanized as described above. Five μm frozen sections were incubated for one hour at 37° C. with 3.2 mM Z-arg-arg-4-Methoxy-2-Naphthylamine (Cosmo Bio) in 100 mM potassium phosphate buffer containing 10% polyvinyl alcohol, 10 mM dithiothreitol, 2.7 mM L-Cysteine and 1.3 mM EDTA (Sigma). After then, the slides were placed in 125 mg/ml of N-ethylmaleimide in potassium phosphate buffer following at 55° C. for 5 minutes, followed by incubation with Fast Blue Solution (Fast Blue 21 mg/100 ml of potassium phosphate solution, Sigma) for thirty minutes and 0.1M cupric sulfate solution for 15 minutes at room temperature. After washing with physiological saline, the slides were covered with PERMAFLUOR (Immunotec)."}, "[2]": {"tested_on": "experimentally induced cerebral aneurysms", "assay": "Experimentally induced cerebral aneurysm model, histopathology of the ACA/OA bifurcation", "type": "in vivo, SD (Sprague-Dawley) rats", "protocol": "After the induction of pentobarbital anesthesia (50 mg/kg), the left common carotid artery and posterior branches of the bilateral renal arteries were ligated at the same time with 10-0 nylon in 7 week-old male SD (Sprague-Dawley) rats. Animals were fed special food containing 8% sodium chloride and 0.12% β-aminopropionitrile (an inhibitor of lysyl oxidase that catalyzes the cross-linking of collagen and elastin). Blood pressure was measured by tail-cuff method. Animal care and experiments complied with Japanese community standards on the care and use of laboratory animals.\nA total of 18 rats were orally given 50 mg/kg/day of the inhibitor. Immediately after aneurysm induction, rats were fed food with (n=18) or without (n=21) 50 mg/kg/day of the inhibitor, and sacrificed after three months. The ACA/OA bifurcation was stripped and observed under a light microscope after Elastica van Gieson staining. Early aneurysmal change refers to a lesion with the discontinuity of the internal elastic lamina without apparent outward bulging of the arterial wall. Advanced aneurysm refers to an obvious outward bulging of the arterial wall with the fragmentation or disappearance of the internal elastic lamina. After immunohistochemistry for CD68, the number of CD68-positive cells was counted on each section. Three independent researchers assessed the histopathological changes.\nThe values were expressed as means Standard deviation (SD). Statistical analysis was performed by using Student's t-test for a two-group comparison and one-way ANOVA followed by Fisher test for a multiple comparison. The incidence of aneurysmal changes was analyzed by the use of Fisher's exact test. Differences were considered statistically significant at P<0.05."}, "cathepsin B [3]": {"target": "cathepsin B (Homo sapiens, UniProt P07858)", "assay": "Inhibition of cathepsin B (IC50)", "type": "biochemical", "conditions": "read-out: IC 50 for cathepsin B"}, "[4]": {"assay": "Serum concentration of the inhibitor in treated rats", "type": "in vivo", "conditions": "50 mg/kg/day orally in food"}, "cathepsin S": {"target": "cathepsin S (Homo sapiens, UniProt P25774)", "sequence (P25774 115-331, species assumed)": "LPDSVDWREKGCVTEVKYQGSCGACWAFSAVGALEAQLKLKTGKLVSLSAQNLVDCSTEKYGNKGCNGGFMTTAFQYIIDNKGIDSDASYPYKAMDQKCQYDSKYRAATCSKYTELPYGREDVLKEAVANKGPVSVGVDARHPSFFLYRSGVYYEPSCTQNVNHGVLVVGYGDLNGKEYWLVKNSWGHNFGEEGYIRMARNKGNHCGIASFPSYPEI", "assay": "Inhibition of cathepsin S (IC50)", "type": "biochemical", "conditions": "read-out: IC 50 for cathepsin S"}, "matrix metalloproteases": {"tested_on": "matrix metalloproteases", "assay": "Inhibition of other proteases", "type": "biochemical"}, "CD68-positive cells": {"tested_on": "CD68-positive cells", "assay": "Macrophage infiltration around aneurysms (CD68-positive cells counted)", "type": "in vivo, rats", "conditions": "50 mg/kg/day, n=10; control 5.3±1.5; did not differ", "protocol": "Three months after aneurysm induction, all rats (n=10) were deeply anesthetized and perfused transcardinally with 4% paraformaldehyde. As a control, age-matched male Sprague-Dawley rats were euthanized as described above. The anterior cerebral artery/olfactory artery (ACA/OA) bifurcation was stripped, embedded and cut into 5 μm sections. After blocking with 5% Donkey serum, primary antibodies were incubated for one hour at room temperature followed by incubation with fluorescence labeled secondary antibodies for one hour at room temperature. The secondary antibodies were FITC-conjugated donkey anti-goat IgG antibody, FITC-conjugated donkey anti-rabbit IgG antibody, Cy3-conjugated donkey anti-mouse IgG antibody, and Cy3-conjugated donkey anti-rabbit IgG antibody. Then the slides were covered with PERMAFLUOR (Immunotec) and excited for fluorescence by illumination through a fluorescence microscope system (Olympus). […]\nA total of 18 rats were orally given 50 mg/kg/day of the inhibitor. […] After immunohistochemistry for CD68, the number of CD68-positive cells was counted on each section. Three independent researchers assessed the histopathological changes."}, "collagenase IV": {"tested_on": "collagenase IV", "assay": "Collagenase activity in lysate of the whole Willis ring, type IV collagen", "type": "in vivo", "conditions": "treated rats n=5, P=0.044", "protocol": "as §1"}}, "note": "Entries after “also recorded” stand apart in the source; their conditions may differ."}
{"smiles": "CC(C)COC[C@H](CC(C)C)NC(=O)[C@H]1O[C@@H]1C(=O)O", "note": "[cysteine protease inhibitor, monosodium (2S,3S)-3-[[(1S)-1-isobutoxymethyl-3-methylbutyl]carbamoyl]-oxirane-2-carboxylate]", "values": [{"measurement": "Collagenase I activity versus control group", "setting": "collagenase I", "result": "significantly lower"}, {"measurement": "Cathepsin B activity at the aneurysmal walls versus untreated aneurysm rats", "setting": "cathepsin B [1]", "result": "reduced"}, {"measurement": "Rats that developed advanced aneurysms", "setting": "[2]; 50 mg/kg/day in food, three months after aneurysm induction, control 19 of 21", "result": "5 of 10"}, {"measurement": "Rats that showed early aneurysmal changes", "setting": "[2]; 50 mg/kg/day in food, three months after aneurysm induction, of 10 rats, control 2 of 21", "result": 4, "unit": "rats"}, {"measurement": "Incidence of all aneurysmal changes versus control group", "setting": "[2]; 50 mg/kg/day, three months", "result": "not different"}, {"measurement": "Rate (incidence) of advanced aneurysms versus control group", "setting": "[2]; 50 mg/kg/day, three months, P=0.022", "result": "significantly lower; also recorded: dramatically reduced"}, {"measurement": "IC50", "setting": "cathepsin B [3]", "result": 0.284, "unit": "µM"}, {"measurement": "Serum concentration", "setting": "[4]", "result": "0.6285 ± 0.0223", "unit": "µM"}, {"measurement": "IC50", "setting": "cathepsin S", "result": 0.186, "unit": "µM"}, {"measurement": "Inhibition of other proteases such as matrix metalloproteases", "setting": "matrix metalloproteases", "result": "did not inhibit"}, {"measurement": "Macrophage infiltration per 50 μm×50 μm field around aneurysms", "setting": "CD68-positive cells", "result": "4.9±1.7", "unit": "cells/field"}, {"measurement": "Collagenase IV activity versus control group", "setting": "collagenase IV", "result": "significantly lower"}]}
